Experimental data: patent US6869955B2, “Tetrahydropteridines and pyridylpiperazines for treatment of neurological disorders” (Bristol-Myers Squibb Pharma Company, priority 1996, dated 2005)

melting point	Structure (SMILES)
146 to 147 °C	CCCCN(CC)c1nc(C)nc2c1NC(=O)CN2c1ccc(C(C)C)cc1Br [Example 1, 8-(2-bromo-4-isopropylphenyl)-4-(ethylbutylamino)-2-methyl-5,6,7,8-tetrahydropteridin-6-one]
238 to 239 °C	Cc1nc(-c2ccccc2C(F)(F)F)c2c(n1)N(c1ccc(C(C)C)cc1Br)CC(=O)N2 [Example 17, 8-(2-bromo-4-isopropylphenyl)-2-methyl-4-(2-trifluoromethylphenyl)-5,6,7,8-tetrahydropteridin-6-one]
148 to 149 °C	CCCCN(CC)c1nc(C)nc2c1NC(=S)CN2c1ccc(C(C)C)cc1Br [Example 131, 8-(2-bromo-4-isopropylphenyl)-4-(ethylbutylamino)-2-methyl-5,6,7,8-tetrahydropteridin-6-thione]
207 to 208 °C	CCCCN1C(=O)CN2C(=O)CN(c3ccc(C(C)C)cc3Br)c3nc(C)nc1c32 [Example 501, 10-[2-bromo-4-(1-methylethyl)-phenyl]-4-butyl-9,10-dihydro-2-methyl-4H,8H-pyrazino[3,2,1-de]pteridine-5,8(6H)-dione]
